Assay results published in patent publication US6475507B1, “Sustained release compositions and the process for their preparation” (priority 1997, dated 2002).

test: Specific surface area of the active substance by the BET method; assay type: physicochemical; settings: peptide salt after lyophilization (or starting material)
Procedure: For all these examples, the inherent viscosities (IV) were measured by the conventional methods of flow time measurement, as described for example in “Pharmacopoée Européenne”, 1997, pages 17-18 (capillary tube method). Unless stated otherwise, these viscosities have been measured in chloroform at a concentration of 0.1% at 25° C. or in hexaisofluoropropanol at a concentration of 0.5% at 30° C. Where measured, the specific surface area of the active substance was determined by the so-called BET method (absorption of a nitrogen monolayer on the active substance), a method well known to a person skilled in the art.

Row | Compound | Specific surface area
1 | CC(C)[C@@H]1NC(=O)[C@H](CCCCN)NC(=O)[C@@H](Cc2c[nH]c3ccccc23)NC(=O)[C@H](Cc2ccc(O)cc2)NC(=O)[C@@H](NC(=O)[C@H](N)Cc2ccc3ccccc3c2)CSSC[C@@H](C(=O)N[C@H](C(N)=O)[C@@H](C)O)NC1=O [Example 13, lanreotide acetate] | 36 m^2/g
2 | CC(C)[C@@H]1NC(=O)[C@H](CCCCN)NC(=O)[C@@H](Cc2c[nH]c3ccccc23)NC(=O)[C@H](Cc2ccc(O)cc2)NC(=O)[C@@H](NC(=O)[C@H](N)Cc2ccc3ccccc3c2)CSSC[C@@H](C(=O)N[C@H](C(N)=O)[C@@H](C)O)NC1=O [Example 14, lanreotide acetate] | 43 m^2/g
3 | CC(C)[C@@H]1NC(=O)[C@H](CCCCN)NC(=O)[C@@H](Cc2c[nH]c3ccccc23)NC(=O)[C@H](Cc2ccc(O)cc2)NC(=O)[C@@H](NC(=O)[C@H](N)Cc2ccc3ccccc3c2)CSSC[C@@H](C(=O)N[C@H](C(N)=O)[C@@H](C)O)NC1=O [modified lanreotide acetate, lanreotide acetate] | 4.4 m^2/g
4 | triptorelin acetate [modified triptorelin acetate] | 4.7 m^2/g
5 | triptorelin acetate [unmodified triptorelin acetate, reference compound] | 0.8 m^2/g
